Patent EP0049968A1, “Pharmaceutical compositions” (priority 1980, dated 1982)
Like-named read-outs stand apart in the source and are kept apart here.

System: K-aerogenes strains producing both a plasmid-mediated and chromosomally mediated β-lactamase
Test: MIC of compound (i) alone and in combination with compound (iii), K. aerogenes strains
Type: cell-based, Klebsiella aerogenes
Conditions: for MIC: Klebsiella aerogenes

SMILES: CC1(C)S[C@@H]2[C@H](NC(=O)[C@H](NC(=O)Nc3cnc(Nc4ccc(S(N)(=O)=O)cc4)nc3O)c3ccc(O)cc3)C(=O)N2[C@H]1C(=O)O [compound (i)]
- MIC (read-out: MIC µg/ml compound (i) alone): > 160 µg/mL
- MIC (read-out: MIC µg/ml compound (i) alone, Geometric mean): > 160 µg/mL
- MIC µg/ml compound (i) compound (iii) (µg/ml) 1, Geometric mean (geometric mean of 11 K. aerogenes strains, with compound (iii) 1 µg/ml, 95% confidence limits (0.49-50.9)): 5.0 µg/mL
- MIC µg/ml compound (i) compound (iii) (µg/ml) 2, Geometric mean (geometric mean of 11 K. aerogenes strains, with compound (iii) 2 µg/ml, 95% confidence limits (0.3-14.4)): 2.1 µg/mL
- MIC µg/ml compound (i) compound (iii) (µg/ml) 5, Geometric mean (geometric mean of 11 K. aerogenes strains, with compound (iii) 5 µg/ml, 95% confidence limits (0.14-4.5)): 0.81 µg/mL
- MIC µg/ml compound (i) compound (iii) (µg/ml) 10, Geometric mean (geometric mean of 11 K. aerogenes strains, with compound (iii) 10 µg/ml, 95% confidence limits (0.04-0.9)): 0.19 µg/mL
- MIC µg/ml compound (i) alone (strain 11793): >160 µg/mL
- MIC µg/ml compound (i) compound (iii) (µg/ml) 1 (strain 11793, with compound (iii) 1 µg/ml): 10 µg/mL
- MIC µg/ml compound (i) compound (iii) (µg/ml) 2 (strain 11793, with compound (iii) 2 µg/ml): 5 µg/mL
- MIC µg/ml compound (i) compound (iii) (µg/ml) 5 (strain 11793, with compound (iii) 5 µg/ml): 2.5 µg/mL
- MIC µg/ml compound (i) compound (iii) (µg/ml) 10 (strain 11793, with compound (iii) 10 µg/ml): 1.25 µg/mL
- MIC µg/ml compound (i) alone (strain 11974): >160 µg/mL
- MIC µg/ml compound (i) compound (iii) (µg/ml) 1 (strain 11974, with compound (iii) 1 µg/ml): 0.31 µg/mL
- MIC µg/ml compound (i) compound (iii) (µg/ml) 2 (strain 11974, with compound (iii) 2 µg/ml): 0.16 µg/mL
- MIC µg/ml compound (i) compound (iii) (µg/ml) 5 (strain 11974, with compound (iii) 5 µg/ml): 0.08 µg/mL
- MIC µg/ml compound (i) compound (iii) (µg/ml) 10 (strain 11974, with compound (iii) 10 µg/ml): 0.04 µg/mL
- MIC µg/ml compound (i) compound (iii) (µg/ml) 2 (strain BED4, with compound (iii) 2 µg/ml): 2.5 µg/mL
- MIC µg/ml compound (i) compound (iii) (µg/ml) 5 (strain BED4, with compound (iii) 5 µg/ml): 1.25 µg/mL
- MIC µg/ml compound (i) compound (iii) (µg/ml) 10 (strain BED4, with compound (iii) 10 µg/ml): 0.31 µg/mL
- MIC µg/ml compound (i) alone (strain BED6): >160 µg/mL
- MIC µg/ml compound (i) compound (iii) (µg/ml) 1 (strain BED6, with compound (iii) 1 µg/ml): 0.62 µg/mL
- MIC µg/ml compound (i) compound (iii) (µg/ml) 2 (strain BED6, with compound (iii) 2 µg/ml): 0.31 µg/mL
- MIC µg/ml compound (i) compound (iii) (µg/ml) 5 (strain BED6, with compound (iii) 5 µg/ml): 0.16 µg/mL
- MIC µg/ml compound (i) compound (iii) (µg/ml) 10 (strain BED6, with compound (iii) 10 µg/ml): 0.08 µg/mL
- MIC µg/ml compound (i) alone (strain BED9): >160 µg/mL
- MIC µg/ml compound (i) compound (iii) (µg/ml) 1 (strain BED9, with compound (iii) 1 µg/ml): 0.31 µg/mL
- MIC µg/ml compound (i) compound (iii) (µg/ml) 2 (strain BED9, with compound (iii) 2 µg/ml): 0.31 µg/mL
- MIC µg/ml compound (i) compound (iii) (µg/ml) 5 (strain BED9, with compound (iii) 5 µg/ml): 0.16 µg/mL
- MIC µg/ml compound (i) compound (iii) (µg/ml) 10 (strain BED9, with compound (iii) 10 µg/ml): 0.04 µg/mL
- MIC µg/ml compound (i) alone (strain Ba95): >160 µg/mL
- MIC µg/ml compound (i) compound (iii) (µg/ml) 1 (strain Ba95, with compound (iii) 1 µg/ml): 0.31 µg/mL
- MIC µg/ml compound (i) compound (iii) (µg/ml) 2 (strain Ba95, with compound (iii) 2 µg/ml): 0.31 µg/mL
- MIC µg/ml compound (i) compound (iii) (µg/ml) 5 (strain Ba95, with compound (iii) 5 µg/ml): 0.16 µg/mL
- MIC µg/ml compound (i) compound (iii) (µg/ml) 10 (strain Ba95, with compound (iii) 10 µg/ml): 0.02 µg/mL
- MIC µg/ml compound (i) alone (strain SA4): >160 µg/mL
- MIC µg/ml compound (i) compound (iii) (µg/ml) 1 (strain SA4, with compound (iii) 1 µg/ml): 2.5 µg/mL
- MIC µg/ml compound (i) compound (iii) (µg/ml) 2 (strain SA4, with compound (iii) 2 µg/ml): 1.25 µg/mL
- MIC µg/ml compound (i) compound (iii) (µg/ml) 5 (strain SA4, with compound (iii) 5 µg/ml): 0.31 µg/mL
- MIC µg/ml compound (i) compound (iii) (µg/ml) 10 (strain SA4, with compound (iii) 10 µg/ml): 0.08 µg/mL
- MIC µg/ml compound (i) alone (strain VA1): >160 µg/mL
- MIC µg/ml compound (i) compound (iii) (µg/ml) 1 (strain VA1, with compound (iii) 1 µg/ml): 10 µg/mL
- MIC µg/ml compound (i) compound (iii) (µg/ml) 2 (strain VA1, with compound (iii) 2 µg/ml): 5 µg/mL
- MIC µg/ml compound (i) compound (iii) (µg/ml) 5 (strain VA1, with compound (iii) 5 µg/ml): 2.5 µg/mL
- MIC µg/ml compound (i) compound (iii) (µg/ml) 10 (strain VA1, with compound (iii) 10 µg/ml): 0.31 µg/mL
- MIC µg/ml compound (i) alone (strain VA2): >160 µg/mL
- MIC µg/ml compound (i) compound (iii) (µg/ml) 1 (strain VA2, with compound (iii) 1 µg/ml): 40 µg/mL
- MIC µg/ml compound (i) compound (iii) (µg/ml) 2 (strain VA2, with compound (iii) 2 µg/ml): 10 µg/mL
- MIC µg/ml compound (i) compound (iii) (µg/ml) 5 (strain VA2, with compound (iii) 5 µg/ml): 2.5 µg/mL
- MIC µg/ml compound (i) compound (iii) (µg/ml) 10 (strain VA2, with compound (iii) 10 µg/ml): 0.62 µg/mL
- MIC µg/ml compound (i) alone (strain VA3): >160 µg/mL
- MIC µg/ml compound (i) compound (iii) (µg/ml) 1 (strain VA3, with compound (iii) 1 µg/ml): 40 µg/mL
- MIC µg/ml compound (i) compound (iii) (µg/ml) 2 (strain VA3, with compound (iii) 2 µg/ml): 10 µg/mL
- MIC µg/ml compound (i) compound (iii) (µg/ml) 5 (strain VA3, with compound (iii) 5 µg/ml): 2.5 µg/mL
- MIC µg/ml compound (i) compound (iii) (µg/ml) 10 (strain VA3, with compound (iii) 10 µg/ml): 0.31 µg/mL
- MIC µg/ml compound (i) alone (strain VA5): >160 µg/mL
- MIC µg/ml compound (i) compound (iii) (µg/ml) 1 (strain VA5, with compound (iii) 1 µg/ml): >80 µg/mL
- MIC µg/ml compound (i) compound (iii) (µg/ml) 2 (strain VA5, with compound (iii) 2 µg/ml): 80 µg/mL
- MIC µg/ml compound (i) compound (iii) (µg/ml) 5 (strain VA5, with compound (iii) 5 µg/ml): 20 µg/mL
- MIC µg/ml compound (i) compound (iii) (µg/ml) 10 (strain VA5, with compound (iii) 10 µg/ml): 2.5 µg/mL
